According to patent US8921576B2, “Spiroindoline compound, and medicinal agent comprising same” (Kowa Company, Ltd., priority 2011, dated 2014):

Key:
[1] = test system: normal mice (C57BL/6j mice); experiment: Oral glucose tolerance test after single administration of test compound in normal mice; assay type: in vivo; settings: 30 mg/kg oral in 10% Gelucire44/14; 2 g/kg glucose oral 30 minutes later; versus solvent alone; FIG. 1
Experimental: FIG. 1 is a view showing the results of an oral sugar tolerance test that was carried out after completion of a single administration of the compound of Example 68, in which the 30 mg/kg compound was orally administered to normal mice, and 30 minutes later, 2 g/kg glucose was orally administered thereto, followed by confirmation of a hypoglycemic action of the compound.
The test compound (Example 68) (30 mg/kg) suspended in 10% (v/v) Gelucire44/14 (GATTEFOSSE) was orally administered to normal mice (C57BL/6j mice, CLEA Japan, Inc.). Thirty minutes later, 2 g/kg glucose was orally administered to the mice. The blood glucose level was measured using an automatic blood glucose level measurement apparatus (Medisafe, TERUMO), before administration of the test compound, 25 minutes after administration of the test compound, and 15, 30, 60, and 120 minutes after administration of glucose. Thus, the action of the test compound to lower blood glucose level was evaluated.

[2] = biological target: T1, GST-GK derived from human liver GK (Homo sapiens, UniProt P35557); experiment: In vitro GK activity measurement test (G6PDH-coupled, OD340); assay type: biochemical; settings: test compound 1 μmol/L; glucose 2.5 mmol/L; 25° C.; OD340 slope with compound / without compound; read-out: GK activation rate (%)
T1 construct: made in house; host or cells: Escherichia coli DH5α
T1 sequence (P35557 1-466 isoform P35557-2): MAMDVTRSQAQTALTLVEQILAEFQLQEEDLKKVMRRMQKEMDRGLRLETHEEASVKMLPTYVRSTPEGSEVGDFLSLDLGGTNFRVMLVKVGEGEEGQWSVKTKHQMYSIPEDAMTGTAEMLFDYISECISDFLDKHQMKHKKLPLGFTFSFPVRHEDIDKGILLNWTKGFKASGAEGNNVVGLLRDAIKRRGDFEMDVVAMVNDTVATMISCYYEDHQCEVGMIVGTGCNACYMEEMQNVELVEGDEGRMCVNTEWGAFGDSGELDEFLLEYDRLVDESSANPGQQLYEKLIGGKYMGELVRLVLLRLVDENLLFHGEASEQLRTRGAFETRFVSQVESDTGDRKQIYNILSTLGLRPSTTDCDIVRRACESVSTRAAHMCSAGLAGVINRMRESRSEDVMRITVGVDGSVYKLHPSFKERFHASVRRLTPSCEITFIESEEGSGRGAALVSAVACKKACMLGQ
In short: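 GST-fused human liver glucokinase (variant 2, E. coli-expressed) at 0.1 μg/mL final, in pH 7.1 Hepes with 2.5 mmol/L glucose, 5 mmol/L ATP, NADP and G6PDH coupling, at 25° C. OD340 slope monitored over 10 min. Activation rate is slope with test compound (1 μmol/L) divided by slope without.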

Row | Compound | activity at 1 µM [2] | blood glucose level (action to lower blood glucose level) [1]
1 | CC(=O)N1CCC2(C1)CN(C(=O)Nc1ncc(F)s1)c1ccc(Cl)cc12 (centres unmarked) [Example 68, 1′-acetyl-5-chloro-N-(5-fluorothiazol-2-yl)spiro[indoline-3,3′-pyrrolidine]-1-carboxamide] | – | lower than that of the mice orally administered with the solvent alone
2 | CN(C)CCN(Cc1ccccc1)S(=O)(=O)c1ccc2c(c1)C1(CCN(C=O)C1)CN2C(=O)Nc1ncc(F)s1 (centres unmarked) [Example 308, 5-(N-benzyl-N-(2-(dimethylamino)ethyl)sulfamoyl)-N-(5-fluorothiazol-2-yl)-1′-formylspiro[indoline-3,3′-pyrrolidine]-1-carboxamide] | 504% | –
3 | NCC(=O)N1CC[C@@]2(C1)CN(C(=O)Nc1ncc(Cl)s1)c1ccc(Cl)cc12 [Example 353, (R)-1′-(2-aminoacetyl)-5-chloro-N-(5-chlorothiazol-2-yl)spiro[indoline-3,3′-pyrrolidine]-1-carboxamide] | 486% | –

Continued, in another order:

Row | activity at 1 µM [2] | Compound | blood glucose level (action to lower blood glucose level) [1]
4 | 500% | CC(=O)N1CC(CNC(=O)N2CCC3(C2)CN(C(=O)Nc2ncc(Cl)s2)c2ccc(C(F)(F)F)cc23)C1 (centres unmarked) [Example 445, N1′-((1-acetylazetidin-3-yl)methyl)-N1-(5-chlorothiazol-2-yl)-5-(trifluoromethyl)spiro[indoline-3,3′-pyrrolidine]-1,1′-dicarboxamide] | –
5 | 526% | O=C(NCCCO)N1CCC2(C1)CN(C(=O)Nc1ncc(Cl)s1)c1ccc(Cl)cc12 (centres unmarked) [Example 464, 5-chloro-N1-(5-chlorothiazol-2-yl)-N1′-(3-hydroxypropyl)spiro[indoline-3,3′-pyrrolidine]-1,1′-dicarboxamide] | –
